# Non-standard residues stand in square brackets, D forms with d. Primed or numbered codes have the meaning given here. No end group written: not given here. *: point of attachment. FITC = O=C1OC2(c3ccc(O)cc3Oc3cc(O)ccc32)c2ccc(NC(=S)*)cc21; Aha′ = not defined here
# Target: T1, O-Linked N-acetylglucosaminyltransferase (OGT) (Homo sapiens, UniProt O15294)
# T1 sequence (O15294 1-1046): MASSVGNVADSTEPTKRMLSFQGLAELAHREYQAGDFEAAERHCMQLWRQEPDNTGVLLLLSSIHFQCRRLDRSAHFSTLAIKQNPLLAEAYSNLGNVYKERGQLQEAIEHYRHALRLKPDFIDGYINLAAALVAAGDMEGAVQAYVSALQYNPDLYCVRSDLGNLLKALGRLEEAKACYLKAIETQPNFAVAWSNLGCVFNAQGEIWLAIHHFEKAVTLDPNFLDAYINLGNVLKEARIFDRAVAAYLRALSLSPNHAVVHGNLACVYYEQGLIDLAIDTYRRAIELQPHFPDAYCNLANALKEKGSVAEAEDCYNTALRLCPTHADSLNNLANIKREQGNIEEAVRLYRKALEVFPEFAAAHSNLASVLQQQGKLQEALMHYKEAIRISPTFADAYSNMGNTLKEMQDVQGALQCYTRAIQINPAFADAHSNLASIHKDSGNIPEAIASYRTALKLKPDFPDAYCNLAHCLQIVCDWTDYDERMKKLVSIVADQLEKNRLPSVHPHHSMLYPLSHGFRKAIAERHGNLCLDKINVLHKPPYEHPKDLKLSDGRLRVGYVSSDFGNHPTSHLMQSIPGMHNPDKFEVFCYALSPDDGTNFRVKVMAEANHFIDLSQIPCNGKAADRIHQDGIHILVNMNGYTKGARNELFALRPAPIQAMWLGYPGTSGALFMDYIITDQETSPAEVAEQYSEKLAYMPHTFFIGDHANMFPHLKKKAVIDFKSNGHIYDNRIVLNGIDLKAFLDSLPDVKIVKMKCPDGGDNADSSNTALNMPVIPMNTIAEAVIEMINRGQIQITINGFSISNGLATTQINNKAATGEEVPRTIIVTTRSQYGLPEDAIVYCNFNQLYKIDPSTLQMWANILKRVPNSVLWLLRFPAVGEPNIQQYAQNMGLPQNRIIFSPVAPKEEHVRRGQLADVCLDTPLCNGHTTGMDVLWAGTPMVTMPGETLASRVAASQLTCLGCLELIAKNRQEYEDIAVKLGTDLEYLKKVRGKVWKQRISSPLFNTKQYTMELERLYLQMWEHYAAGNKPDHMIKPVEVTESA
# Experiment: Glycosylation of CK2-derived polypeptide substrates by OGT, quantified by LC/MS
# Format: biochemical
# Settings: OGT, LC/MS peak integration at 445 nm; relative to wt polypeptide 4.1
# Protocol: To address the first requirement, a panel of polypeptides was synthesized based on a truncated version of the CKII polypeptide [CKII peptide PGGSTPVSSNAMM (SEQ ID NO:20)]. The polypeptide was modified from the native sequence in several ways. First, a fluorescein was installed on the N-terminus during synthesis. Second, a lysine was added to the C-terminus so that a second dye or quencher could be installed by reaction with the appropriate N-hydroxysuccinimidyl ester. These modifications allowed two different FRET approaches. The first approach required the installation of a coumarin derivative on the polypeptide. The second required installation of a quencher molecule, which measured total fluorescence intensity. (See Examples 2 and 3). Finally, the residues on either side of the glycosylated serine of the truncated CK2 polypeptide were changed to phenylalanine, leucine or arginine to introduce proteolytic cleavage sites for common proteases (such as trypsin, chymotrypsin and thermolysin) that were not present in the native sequence. It was reasoned that cleavage adjacent to the glycosylation site would yield the largest difference in the rate of proteolysis between glycosylated and native polypeptides. This series of polypeptides was synthesized and screened for OGT activity using by LC/MS. Peak integration (measured at 445 nm) was used to quantitative products and reactants and mass spectrometry was used to confirm peak identity. The results are presented in Table 2 and some of the peptides (peptide 4.1, 4.4, and 4.5 top to bottom) are illustrated in FIG. 2.
# All polypeptides were purchased from Tufts University core facility (Boston, Mass.). The mass of crude product was verified and the polypeptides were labeled under the following conditions: Polypeptide was dissolved in 250 mM NaHCO3 buffer, pH 8.2 at a 5 mM concentration and the appropriate NHS-Ester (0.5 eq) was dissolved in DMSO (a volume of 1/10 of the aqueous buffer was used). The DMSO solution was quickly added to the peptide and the reaction proceeded at room temperature for 30 minutes. This was repeated 2 more times (four more times for polypeptide 4.10). The reaction was monitored by LC/MS. LCMS conditions for polypeptides 4.1-4.8—Agilent Eclipse 5 μm XD8-C8 column, 0→100% CH3CN+0.1% formic acid over 20 minutes. LCMS conditions for polypeptides 4.9-4.10—Agilent Eclipse 5 μm XD8-C8 column, 0→100% CH3CN+0.1% NH4OH over 20 minutes. Each polypeptide was purified by preparative HPLC. Conditions for polypeptides 4.1-4.8 were: —Phenomonex Luna C18 5 μm column, 0→100% CH3CN+0.1% TFA over 40 minutes. Conditions for polypeptides 4.9-4.10 were: —Phenomonex Luna C18 5 μm column, 0→100% CH3CN+0.1% NH4OH over 40 minutes. Products were confirmed by LC/MS. Preparative Glycosylation of Labeled Polypeptides: Purified FRET labeled polypeptides were added (20-50 μM final concentration) to assay buffer (50 mM Tris, 20 mM CaCl2, 0.05% Tween-20, 0.05% NP-40, pH=7.8), 200 μM UDP-GlcNAc, 0.05 units of alkaline phosphatase, and 5 μM OGT. Reactions were monitored using LCMS: conditions for polypeptides 4.1-4.8—Agilent Eclipse 5 μm XD8-C8 column, 10→60% CH3CN+0.1% formic acid over 20 minutes. LCMS conditions for polypeptides 4.9-4.10—Agilent Eclipse 5 μm XD8-C8 column, 10→60% CH3CN+0.1% NH4OH over 20 minutes, and when complete were purified using the same column and conditions. Polypeptides 4.1-4.8 were quantitated by absorption at 492 nm using an extinction coefficient of 86,000 cm^−1M^−1; polypeptide 4.9 was quantitated by absorption at 530 nm using an extinction coefficient of 26,000 cm^−1M^−1; polypeptide 4.10 was quantitated by absorption at 530 nm using an extinction coefficient of 52,000 cm^−1M^−1. Fluorescence Resonance Energy Transfer (FRET)-Peptide Approach #1
row,Relative rate of glycosylation,Compound
1,0.15,FITC(Aha)STPFSSANMK ({FITC}-[Aha′]STPFSSANMK; reading uncertain; also: printed as FITC(Aha)STPFSSANMK) [Polypeptide 4.2]
2,0,FITC(Aha)STPRSSANMK ({FITC}-[Aha′]STPRSSANMK; reading uncertain; also: printed as FITC(Aha)STPRSSANMK) [Polypeptide 4.3]
3,0.4,FITC(Aha)STPVSFANMK ({FITC}-[Aha′]STPVSFANMK; reading uncertain; also: printed as FITC(Aha)STPVSFANMK) [Polypeptide 4.4]
4,0.7,FITC(Aha)STPVSRANMK ({FITC}-[Aha′]STPVSRANMK; reading uncertain; also: printed as FITC(Aha)STPVSRANMK) [Polypeptide 4.5]

# Same assay, conditions: more soluble variant vs earlier polypeptides
row,increase of glycosylation rate,Compound
1,2-3 fold,FITC(Aha)STPVSRANMK(QXL ™ 520)R K(QXL ™ 520) ({FITC}-[Aha′]STPVSRANMK(QXL 520)RK(QXL 520); reading uncertain; also: printed as FITC(Aha)STPVSRANMK(QXL ™ 520)R K(QXL ™ 520)) [Polypeptide 4.10]

# Target: T2, sOGT (Homo sapiens, UniProt O15294)
# T2 sequence (O15294 1-665 isoform O15294-4): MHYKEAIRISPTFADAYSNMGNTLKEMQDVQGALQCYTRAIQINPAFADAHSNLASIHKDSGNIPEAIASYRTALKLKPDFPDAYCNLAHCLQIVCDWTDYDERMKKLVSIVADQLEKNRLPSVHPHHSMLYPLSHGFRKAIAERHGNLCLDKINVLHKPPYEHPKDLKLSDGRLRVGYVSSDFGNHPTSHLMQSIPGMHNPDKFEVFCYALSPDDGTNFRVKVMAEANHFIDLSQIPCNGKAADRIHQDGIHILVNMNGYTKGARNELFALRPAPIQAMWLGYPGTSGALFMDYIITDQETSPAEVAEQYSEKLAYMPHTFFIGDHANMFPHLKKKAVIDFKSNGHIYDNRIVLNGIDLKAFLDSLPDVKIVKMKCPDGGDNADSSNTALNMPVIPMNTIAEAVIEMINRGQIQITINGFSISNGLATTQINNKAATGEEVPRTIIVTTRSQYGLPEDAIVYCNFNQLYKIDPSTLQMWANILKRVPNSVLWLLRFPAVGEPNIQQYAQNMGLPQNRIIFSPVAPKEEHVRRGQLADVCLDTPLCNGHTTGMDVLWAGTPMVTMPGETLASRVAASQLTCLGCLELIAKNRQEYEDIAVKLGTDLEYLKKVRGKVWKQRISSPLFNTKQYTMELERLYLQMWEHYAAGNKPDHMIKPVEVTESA
# Experiment: High-throughput kinetic protease-protection screen with polypeptide 4.10
# Format: biochemical
# Settings: 25 μg/mL (~70 μM); hit = <70% activity in one duplicate and <80% in the second
# Source text: With the final assay conditions established, 124,226 compounds were screened in duplicate at the ICCB (Harvard University, Boston, Mass.) over two days; the highest throughput of any assay performed at the ICCB screening facility. Small molecule libraries from several commercial vendors were screened as well as known bioactive compounds, natural product extracts, and molecules made using diversity oriented synthetic approaches. Included in this set were 52,026 of the 64,416 compounds screened using a donor displacement method such as that described in PCT application PCT/US2007/008806, which was filed Apr. 11, 2007. The vast majority compounds screened were small molecules (average MW ˜350) that were optimized to have favorable physico-chemical properties such as solubility, decreased toxicity, and increased stability. All of the commercial compounds at the ICCB are plated at a stock concentration of 5 mg/mL, which, given a 20 μL reaction volume, corresponds to a 25 μg/mL inhibitor concentration in each well. The format of most compound plates at the ICCB has the last two columns of each 384-well plate empty. This allowed each assay plate to have column of negative controls (run without inhibitor) and column of positive controls (run without sOGT), which allowed a Z′ to be calculated for each plate. These values typically ranged from 0.7-0.8.
# Data workup began by calculating the average positive and negative control values independently for both duplicates of each plate. Using the linear relationship between percent glycosylation and fluorescence shown above (FIG. 7), the percent glycosylation was calculated for each well, with 0% corresponding to the average value of the positive controls and 100% corresponding to the average value of the negative controls. In actuality the range is roughly […] glycosylated polypeptide since the reaction was not allowed to proceed to completion. However, this simplification was employed to facilitate the comparison of different sets of plates. There were remarkably few compounds that reproducibly appeared to inhibit OGT, which enabled hits to be selected using a very high cutoff. Compounds with <70% activity in one duplicate and <80% activity in the second duplicate were scored as hits. Even using this lax criterion, the total unfiltered hit set only numbered 84, corresponding to a hit rate of 0.065%.
# 384-well plates (Costar #3710) were filled using a liquid handling robot with 10 μL of a mixture of 8 μM polypeptide 4.10, 40 μM UDP-GlcNAc, and buffer (50 mM Tris, 20 mM CaCl2, 0.05% Tween-20, 0.05% NP-40, pH=7.8, 500 μM tris(hydroxypropyl)phosphine). Compound libraries were then transferred to the assay plates using a 100 nL pin array and 10 μL of 500 nM sOGT in buffer (50 mM Tris, 20 mM CaCl2, 0.05% Tween-20, 0.05% NP-40, pH=7.8, 500 μM tris(hydroxypropyl)phosphine) was added using a liquid handling robot. The compounds were assayed at a concentration of 25 μg/mL or ˜70 μM, assuming an average compound MW of 350. After 2-3 hours, 20 μL of a 20 ng/mL proteinase K solution in buffer (50 mM Tris, 20 mM CaCl2, 0.05% Tween-20, 0.05% NP-40, pH=7.8) was added and allowed to react for 30-90 minutes. The plates were read using a Perkin-Elmer Envision® microplate reader with a 480 nm excitation filter and 530 nm emission filter.
row,hit in the high throughput screen,Compound
1,singleton hits,O=C(/C=C/c1cccs1)Nc1scc(-c2ccccc2)c1C(=O)O [Compound 2]
2,hits,CSC(SC)=C(C#N)S(=O)(=O)c1ccc(Cl)cc1 [Compound 3]
3,hits,COc1cccc(/N=C\c2c[nH]c3ccccc23)c1 [Compound 5]
4,singleton hits,Cc1cc(C)c2c(C(=O)O)cc(O)nc2c1 [Compound 6]
5,singleton hits,Cl.Cl.N=C(N)c1cccc(NC(=O)Nc2cccc(C(=N)N)c2)c1 [Compound 10]
6,singleton hits,Clc1cccc(C(c2nnc(-c3ccccc3)o2)N2CCN(c3ccccc3)CC2)c1 (stereo not shown) [Compound 15]
7,singleton hits,O=C1OCc2ccccc21 [Compound 16]
8,singleton hits,O=C(O)[C@H](Cc1ccccc1)N1Cc2ccccc2C1=O [Compound 17]
9,singleton hits,CCn1cc(C(=O)N2CCOCC2)c(=O)c2cc(S(=O)(=O)N(C)C)ccc21 [Compound 18]

row,Compound,hit in the high throughput screen
1,N#CSc1cc(SC#N)c(N)nc1N [Compound 4],hits
2,Fc1ccc(NC2=NCCN2)cc1 [Compound 21],singleton hits
